The values that follow come from patent publication US20090186024A1, “Gene Expression Signatures for Oncogenic Pathway Deregulation” (priority 2005, published 2009).

In the assay the test system is breast cancer cell lines. Briefly: Cell proliferation assays (growth inhibition, standard MTT/MTS colorimetric assay). The assay is classed as cell-based. The conditions noted are these: 96 hrs, versus DMSO controls, FIG. 4B. Here is the method:
FIGS. 4A-4B show pathway deregulation in breast cancer cell lines predicts drug sensitivity. A. Pathway predictions in breast cancer cell lines. The results plotted show images of the predicted probability of pathway activation (red indicates high probability, blue indicates low probability). B. Sensitivity to pathway-specific drugs. Left panel. Cells were treated with 3.75 μM of farnesyltransferase inhibitor (L-744,832) for 96 hrs. Proliferation was assayed using a standard MTS tetrazolium colorimetric method. The degree of proliferation inhibition was plotted as a function of probability of Ras pathway activation as determined in panel A. Middle panel. Same as in left panel but using farnesylthiosalicylic acid (200 μM). Right panel. Same as in left panel but using the Src pathway inhibitor SU6656 (1.5 μM), and with the degree of proliferation inhibition plotted as a function of Src pathway activation. […]
Cell and RNA preparation. […] Expression of oncogenes and their secondary targets was determined by a standard Western Blotting protocol using a TGH lysis buffer (1% Triton X-100, 10% glycerol, 50 mM NaCl, 50 mM Hepes, pH 7.3, 5 mM EDTA, 1 mM sodium orthovanadate, 1 mM PMSF, 10 μg/ml leupeptine, 10 μg/ml aprotinin). […] Protein quantitation of lysates was determined by BCA [Pierce] prior to electrophoresis with a 10-12% SDS-PAGE gel. Activation status of kinase pathways for the breast cancer cell lines was determined for growing cells (at 75% confluency) 48 hours after plating using the following methods. Ras activation is measured using a Ras Activation Assay Kit (Upstate Biotechnology) that consists of a GST fusion-protein corresponding to the human Ras Binding Domain (RBD, residues 1-149) of Raf-1. […] Western Blotting for immunoprecipitated H/K-Ras is detected using an H/K-Ras specific antibody (Santa Cruz Biotechnology, #sc-520 and sc-F234). c-Src activation was determined by Western Blotting using a phospho-Tyr416 Src antibody (Cell Signaling, #2101). […]
In general terms: Formazan colour is commonly taken as a measure of viable cells.

Each structure is given as a SMILES string.

As to `CC(C)=CCCC(C)=CCCC(C)=CCSc1ccccc1C(=O)O` [FTS, farnesylthiosalicylic acid], the “relation between probability of Ras pathway deregulation (gene expression prediction) and extent of cell proliferation inhibition by the drug” value is “close concordance and correlation”.

In the case of `CC[C@H](C)[C@@H](CO[C@@H](Cc1ccccc1)C(=O)N[C@@H](CCS(C)(=O)=O)C(=O)OC(C)C)NC[C@@H](N)CS` [L-744,832], the “relation between probability of Ras pathway deregulation (gene expression prediction) and extent of cell proliferation inhibition by the drug” value was “close concordance and correlation”.

As for `CN(C)S(=O)(=O)c1ccc2c(c1)/C(=C/c1cc3c([nH]1)CCCC3)C(=O)N2` [SU6656], the “relation between probability of Src pathway deregulation (gene expression prediction) and extent of cell proliferation inhibition by the drug” value is “close concordance and correlation”.
